Source: patent publication US12581252B2, “Substituted pyrrolo[3,4-b]pyridines as PI3K-α inhibitors” (Relay Therapeutics, Inc., priority 2020, dated 2026)

Each compound was assayed against H1047R PIK3CA enzyme (Homo sapiens, UniProt P42336, H1047R) (assay: ADP-Glo Biochemical PIK3CA Kinase Assay).
Procedure: Compounds to be assayed were plated in 16 doses of 1:2 serial dilutions (20 nL volume each well) on a 1536-well plate, and the plate warmed to room temperature. […] To the well was added 1 μL of 200 μM ATP and 20 μM of diC8-PIP2 in Substrate Assay Buffer (50 mM HEPES pH7.4, 50 mM NaCl, 5 mM DTT and 0.03% CHAPS) to start the reaction, and the plate was shaken for 10 seconds, then spun briefly at 1500 rpm, and then incubated for 60 minutes at room temperature. The reaction was stopped by adding 2 μL of ADP-Glo reagent (Promega), and spinning briefly at 1500 rpm, and then incubating for 40 minutes. ADP-Glo Detection reagent (Promega) was added and the plate spun briefly at 1500 rpm, then incubated for 30 minutes.

Chain of H1047R PIK3CA enzyme (P42336 whole entry H1047R): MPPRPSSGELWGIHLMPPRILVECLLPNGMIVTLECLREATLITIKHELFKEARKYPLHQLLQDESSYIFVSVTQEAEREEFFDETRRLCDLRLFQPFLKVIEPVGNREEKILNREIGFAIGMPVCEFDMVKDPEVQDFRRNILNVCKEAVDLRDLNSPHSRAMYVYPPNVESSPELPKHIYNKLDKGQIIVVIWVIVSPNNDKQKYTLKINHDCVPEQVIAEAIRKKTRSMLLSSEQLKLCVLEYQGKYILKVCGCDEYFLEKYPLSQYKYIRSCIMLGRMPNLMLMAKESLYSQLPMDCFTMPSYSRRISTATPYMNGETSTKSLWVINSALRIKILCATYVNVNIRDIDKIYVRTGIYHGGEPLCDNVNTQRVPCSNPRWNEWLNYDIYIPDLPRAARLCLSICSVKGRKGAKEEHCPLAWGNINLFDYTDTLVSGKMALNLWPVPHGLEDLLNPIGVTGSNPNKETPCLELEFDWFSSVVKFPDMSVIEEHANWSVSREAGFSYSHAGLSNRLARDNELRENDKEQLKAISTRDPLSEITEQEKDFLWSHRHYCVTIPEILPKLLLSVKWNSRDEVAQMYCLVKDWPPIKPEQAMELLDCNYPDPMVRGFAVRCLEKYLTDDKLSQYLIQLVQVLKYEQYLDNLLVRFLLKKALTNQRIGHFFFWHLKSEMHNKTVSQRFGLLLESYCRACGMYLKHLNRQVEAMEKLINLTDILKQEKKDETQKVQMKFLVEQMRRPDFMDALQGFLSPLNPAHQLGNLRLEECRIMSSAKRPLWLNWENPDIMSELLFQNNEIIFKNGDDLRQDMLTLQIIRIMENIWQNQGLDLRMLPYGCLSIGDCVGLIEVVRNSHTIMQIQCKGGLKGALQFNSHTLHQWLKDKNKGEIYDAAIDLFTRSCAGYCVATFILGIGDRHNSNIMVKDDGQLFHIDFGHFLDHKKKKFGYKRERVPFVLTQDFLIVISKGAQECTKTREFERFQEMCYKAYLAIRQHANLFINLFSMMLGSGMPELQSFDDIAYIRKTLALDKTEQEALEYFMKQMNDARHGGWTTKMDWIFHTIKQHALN
Chain of H1047R PIK3CA enzyme (P27986 whole entry partner): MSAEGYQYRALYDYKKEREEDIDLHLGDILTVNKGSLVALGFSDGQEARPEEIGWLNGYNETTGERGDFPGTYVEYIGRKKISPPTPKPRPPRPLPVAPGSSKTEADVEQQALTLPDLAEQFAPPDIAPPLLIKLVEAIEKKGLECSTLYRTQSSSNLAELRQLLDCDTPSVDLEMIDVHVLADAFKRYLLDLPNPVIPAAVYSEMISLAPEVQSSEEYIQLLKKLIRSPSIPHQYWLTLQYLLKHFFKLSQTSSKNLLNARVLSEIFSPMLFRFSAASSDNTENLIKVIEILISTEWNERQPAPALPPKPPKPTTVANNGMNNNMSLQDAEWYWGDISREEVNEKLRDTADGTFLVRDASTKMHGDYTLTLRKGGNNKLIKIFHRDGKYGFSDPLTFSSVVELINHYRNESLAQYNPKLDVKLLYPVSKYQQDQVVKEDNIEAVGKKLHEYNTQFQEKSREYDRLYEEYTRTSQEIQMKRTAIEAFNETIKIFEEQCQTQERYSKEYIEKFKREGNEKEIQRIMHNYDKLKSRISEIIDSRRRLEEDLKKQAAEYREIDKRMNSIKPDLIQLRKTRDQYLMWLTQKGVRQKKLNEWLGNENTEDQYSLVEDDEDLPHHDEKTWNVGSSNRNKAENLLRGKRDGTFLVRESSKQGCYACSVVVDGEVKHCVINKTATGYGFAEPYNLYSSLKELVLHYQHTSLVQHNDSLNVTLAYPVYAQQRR

Row | SMILES | IC50
1 | O=C1NC(c2cc(F)ccc2Cl)c2c(CO)cc(-c3ccc4ncnn4c3)cc21 (stereo not drawn) [Compound I-1851] | 10000 to 100000 nM
2 | O=C1N[C@@H](c2cc(F)ccc2Cl)c2c(NC(=O)[C@H]3CCC[C@H](OC(F)(F)F)C3)cccc21 (single isomer, unassigned) [Compound I-2212] | 10000 to 100000 nM
3 | O=C(Nc1cccc2c1C(C1CCCCN1)NC2=O)c1cc(F)cc(C(F)(F)F)c1 (stereo not drawn) [Compound I-1675] | 1000 to 10000 nM
4 | Cn1ccc2cc(-c3cc(NC(=O)c4cc(F)cc(C(F)(F)F)c4)c4c(c3)C(=O)NC4c3cc(F)ccc3Cl)ccc21 (stereo not drawn) [Compound I-853] | 100 to 500 nM
5 | COc1cccc(-c2cc(NC(=O)c3cc(F)cc(C(F)(F)F)c3)c3c(c2)C(=O)NC3c2cc(F)ccc2Cl)n1 (stereo not drawn) [Compound I-891] | ≤ 100 nM
6 | C[C@H](C#N)n1cc(-c2cc(NC(=O)c3cc(F)cc(C(F)(F)F)c3)c3c(c2)C(=O)N[C@@H]3c2cc(F)ccc2Cl)cn1 (single isomer, unassigned) [Compound I-1915] | 1000 to 10000 nM
7 | O=C(Nc1cc(Br)cc2c1[C@H](c1cc(F)ccc1F)NC2=O)c1cc(F)cc(C(F)(F)F)c1 [Compound I-674] | 100 to 500 nM
8 | O=C(Nc1cc(-c2ccc3ncnn3c2)cc2c1[C@@H](c1cc(F)ccc1Cl)NC2=O)c1cc(Cl)cc(Cl)c1 (stereo in doubt) [Compound I-1207] | 1000 to 10000 nM
9 | O=C(Nc1cc(-c2ccn3ncnc3c2F)cc2c1[C@H](c1cc(F)ccc1Cl)NC2=O)c1cc(F)cc(C(F)(F)F)c1 [Compound I-1765] | ≤ 100 nM
10 | O=C(Nc1cc(Br)cc2c1C(c1cc(Cl)cc(F)c1F)NC2=O)c1cc(F)cc(C(F)(F)F)c1 (stereo not drawn) [Compound I-785] | ≤ 100 nM
11 | O=C(Nc1cc(-n2ccnc2)cc2c1[C@@H](c1cc(F)ccc1Cl)NC2=O)c1cc(F)cc(C(F)(F)F)c1 (stereo in doubt) [Compound I-1125] | 100 to 500 nM
12 | N#Cc1c(-c2cc(NC(=O)c3cc(F)cc(C(F)(F)F)c3)c3c(c2)C(=O)N[C@@H]3c2cc(F)ccc2Cl)cnn1C(F)F [Compound I-1920] | 1000 to 10000 nM
13 | O=C(Nc1cccc2c1C(C1CNC1)NC2=O)c1cc(F)cc(C(F)(F)F)c1 (stereo not drawn) [Compound I-1833] | 10000 to 100000 nM
14 | O=C(Nc1cc(-c2ccnn2C[C@@H]2CCOC2)cc2c1C(c1cc(F)ccc1Cl)NC2=O)c1cc(F)cc(C(F)(F)F)c1 (single isomer, unassigned) [Compound I-1407] | ≤ 100 nM
15 | CC(O)c1cc(NC(=O)c2cc(F)cc(C(F)(F)F)c2)c2c(c1)C(=O)NC2c1cc(F)ccc1Cl (racemic) [Compound I-664] | ≤ 100 nM
16 | CC(=O)N1CCC12CN(c1cc(NC(=O)c3cc(F)cc(C(F)(F)F)c3)c3c(c1)C(=O)NC3c1cc(F)ccc1Cl)C2 (stereo not drawn) [Compound I-1387] | 100 to 500 nM
17 | O=C(Nc1cc(CCO)cc2c1C(c1cc(F)ccc1Cl)NC2=O)c1cc(F)cc(C(F)(F)F)c1 (stereo not drawn) [Compound I-579] | ≤ 100 nM
18 | [2H]C1(c2cc(F)ccc2Cl)NC(=O)c2cc(-c3ccc4ncnn4c3)cc(NC(=O)c3cc(F)cc(C(F)(F)F)c3)c21 (stereo not drawn) [Compound I-1413] | ≤ 100 nM
19 | O=C(Nc1cccc2c1[C@@H](C[C@@H]1CCCCN1)NC2=O)c1cc(F)cc(C(F)(F)F)c1 (single isomer, unassigned) [Compound I-2281] | 10000 to 100000 nM
20 | CC1(C2NC(=O)c3cccc(NC(=O)c4cc(F)cc(C(F)(F)F)c4)c32)CC1 (racemic) [Compound I-1791] | 10000 to 100000 nM
21 | O=C(Nc1cc(O)cc2c1C(c1cc(F)ccc1Cl)NC2=O)c1cc(F)cc(Cl)c1 (stereo not drawn) [Compound I-383] | ≤ 100 nM
22 | CC1(Cc2cc(NC(=O)c3cc(F)cc(C(F)(F)F)c3)c3c(c2)C(=O)N[C@@H]3c2cc(F)ccc2Cl)COC1 [Compound I-817] | 1000 to 10000 nM
23 | Nc1nccc(-c2cc(NC(=O)c3cc(F)cc(C(F)(F)F)c3)c3c(c2)C(=O)NC3c2cc(F)ccc2Cl)n1 (stereo not drawn) [Compound I-1090] | ≤ 100 nM
24 | O=C(Nc1cc(-c2cscn2)cc2c1[C@@H](c1cc(F)ccc1Cl)NC2=O)c1cc(F)cc(C(F)(F)F)c1 [Compound I-1085] | 1000 to 10000 nM
25 | CC(C)(O)C(=O)Nc1cc(NC(=O)c2cc(F)cc(C(F)(F)F)c2)c2c(c1)C(=O)NC2c1cc(F)ccc1Cl (stereo not drawn) [Compound I-591] | ≤ 100 nM
26 | CC(=O)N1CC2(C1)CN(c1cc(NC(=O)c3cc(F)cc(C(F)(F)F)c3)c3c(c1)C(=O)NC3c1cc(F)ccc1Cl)C2 (stereo not drawn) [Compound I-1301] | 100 to 500 nM
27 | O=C(Nc1cc(OCC2(O)COC2)cc2c1C(c1cc(F)ccc1Cl)NC2=O)c1cc(F)cc(C(F)(F)F)c1 (stereo not drawn) [Compound I-1338] | 100 to 500 nM
28 | O=C1CCC[C@H]([C@H]2NC(=O)c3cccc(NC(=O)c4cc(F)cc(C(F)(F)F)c4)c32)C1 (single isomer, unassigned) [Compound I-2252] | 10000 to 100000 nM
29 | O=C(Nc1cc(-c2ccc(C(F)F)nc2)cc2c1[C@H](c1cc(F)ccc1Cl)NC2=O)c1cc(F)cc(C(F)(F)F)c1 [Compound I-2008] | ≤ 100 nM

Results, then the compound that gave them:

Row | IC50 | SMILES
30 | 100 to 500 nM | Cc1ccccc1C1NC(=O)c2c(C(N)=O)ccc(NC(=O)c3cc(F)cc(C(F)(F)F)c3)c21 (stereo not drawn) [Compound I-339]
31 | 10000 to 100000 nM | O=C1N[C@H](c2cc(F)ccc2Cl)c2c(NC(=O)N3C[C@@H](CO)[C@H](C(F)(F)F)C3)cccc21 (single isomer, unassigned) [Compound I-2276]
32 | 1000 to 10000 nM | O=C1N[C@H](c2cc(F)ccc2Cl)c2c(NC(=O)c3csc4ccccc34)cc(Br)cc21 [Compound I-733]
33 | 1000 to 10000 nM | O=C1N[C@H](c2cc(F)ccc2Cl)c2c(NC(=O)N3C[C@@](O)(C(F)(F)F)c4cc(F)ccc43)ccc(-n3cccn3)c21 (single isomer, unassigned) [Compound I-2496]
34 | 100 to 500 nM | Cc1ccc(C(=O)Nc2cc(Br)cc3c2C(c2cc(F)ccc2Cl)NC3=O)cc1C(F)(F)F (stereo not drawn) [Compound I-875]
35 | 10000 to 100000 nM | CN1CCC(C(=O)Nc2cc(-c3ccc4ncnn4c3)cc3c2C(c2cc(F)ccc2Cl)NC3=O)CC1 (stereo not drawn) [Compound I-1758]
36 | 1000 to 10000 nM | O=C1N[C@H](c2cc(F)ccc2Cl)c2c(NC(=O)N3C[C@@H](O)c4c3ccc(F)c4F)cccc21 (single isomer, unassigned) [Compound I-2311]
37 | 1000 to 10000 nM | N#CCCc1cc(NC(=O)N2C[C@H](O)c3cc(F)ccc32)c2c(c1)C(=O)N[C@@H]2c1cc(F)ccc1Cl (single isomer, unassigned) [Compound I-2349]
38 | 100 to 500 nM | O=C1N[C@@H](c2cc(F)ccc2Cl)c2c(NC(=O)N3C[C@H](O)c4ccccc43)cc(-c3ccc4ncnn4c3)cc21 (single isomer, unassigned) [Compound I-1576]
39 | 1000 to 10000 nM | Nc1ccc(Cl)c(C2NC(=O)c3cccc(NC(=O)c4cc(F)cc(C(F)(F)F)c4)c32)c1 (stereo not drawn) [Compound I-429]
40 | 1000 to 10000 nM | O=C1N[C@@H](c2cc(F)ccc2Cl)c2c(NC(=O)N3C[C@@](O)(C(F)(F)F)c4cc(F)ccc43)ccc(-n3ccnn3)c21 (single isomer, unassigned) [Compound I-2523]
41 | 10000 to 100000 nM | O=C(Nc1cccc2c1C(c1cc(F)ccc1Cl)NC2=O)c1ccc(O)c(C(F)(F)F)c1 (stereo not drawn) [Compound I-2363]
42 | 1000 to 10000 nM | COCc1cc(NC(=O)N2C[C@](O)(C(F)(F)F)c3cc(F)ccc32)c2c(c1)C(=O)N[C@@H]2c1cc(F)ccc1Cl (single isomer, unassigned) [Compound I-2542]
43 | 10000 to 100000 nM | O=C1N[C@H](c2cc(F)ccc2Cl)c2c(NC(=O)[C@@H]3CCCCN3)cc(-c3ccc4ncnn4c3)cc21 [Compound I-2146]
44 | 500 to 1000 nM | Cc1nn(C(=O)Nc2cccc3c2C(c2cc(F)ccc2Cl)NC3=O)c2ccccc12 (stereo not drawn) [Compound I-2380]
45 | 500 to 1000 nM | CC(C)(O)c1cc(NC(=O)c2nsc3ccccc23)c2c(c1)C(=O)N[C@@H]2c1cc(F)ccc1Cl [Compound I-191]
46 | 10000 to 100000 nM | CN1CCCC[C@H]1C(=O)Nc1cc(-c2ccc3ncnn3c2)cc2c1[C@@H](c1cc(F)ccc1Cl)NC2=O (racemic) [Compound I-1947]
47 | 100 to 500 nM | Cc1ccccc1C1NC(=O)c2cccc(NC(=O)N3CCc4c(F)cc(F)cc43)c21 (stereo not drawn) [Compound I-104]
48 | 100 to 500 nM | Cc1ccccc1[C@@H]1NC(=O)c2nccc(NC(=O)N3C[C@H](C)c4ccccc43)c21 (single isomer, unassigned) [Compound I-300]
49 | 1000 to 10000 nM | CC[C@]1(O)CN(C(=O)Nc2cccc3c2[C@@H](c2cc(F)ccc2Cl)NC3=O)c2ccc(F)cc21 (single isomer, unassigned) [Compound I-2460]
50 | 500 to 1000 nM | CNc1cc(NC(=O)N2C[C@](O)(C(F)(F)F)c3cc(F)ccc32)c2c(c1)C(=O)N[C@@H]2c1cc(F)ccc1Cl (single isomer, unassigned) [Compound I-2641]
51 | 1000 to 10000 nM | O=C1N[C@@H](c2cc(F)ccc2Cl)c2c(NC(=O)N3C[C@@](O)(C(F)F)c4cc(F)ccc43)cc(Cl)cc21 (single isomer, unassigned) [Compound I-2589]
52 | 10000 to 100000 nM | O=C1NC(c2cc(F)ccc2Cl)c2c(Nc3cc4ccccn4n3)cc(-c3ccc4ncnn4c3)cc21 (stereo not drawn) [Compound I-1679]
53 | 100 to 500 nM | O=C1N[C@H](c2cc(F)ccc2Cl)c2c(NC(=O)N3C[C@@H](O)c4cc(F)ccc43)cc(-c3ccc(=O)n(C(F)F)c3)cc21 (single isomer, unassigned) [Compound I-2449]
54 | 100 to 500 nM | Cc1ccccc1C1NC(=O)c2nccc(NC(=O)c3cc(F)cc(C(F)(F)F)c3)c21 (stereo not drawn) [Compound I-142]
55 | 500 to 1000 nM | Cc1ccccc1[C@@H]1NC(=O)c2nccc(NC(=O)N3CCc4c(F)cc(F)cc43)c21 [Compound I-229]
56 | 10000 to 100000 nM | N#Cc1ccc(C(=O)Nc2cc(Br)cc3c2C(c2cc(F)ccc2Cl)NC3=O)cc1 (stereo not drawn) [Compound I-517]
57 | 10000 to 100000 nM | Cn1cc(Br)c(C(=O)Nc2cccc3c2C(c2cc(F)ccc2Cl)NC3=O)n1 (stereo not drawn) [Compound I-582]
